Four compounds from patent publication US10238621B2, “9,10-α,α-OH-taxane analogs and methods for production thereof” (priority 2003, dated 2019) can be followed below.

Format in all cases: cell-based
One assay relates to Neuroblastoma SK-N-AS. Put plainly: Inhibition of cell growth, Neuroblastoma SK-N-AS (MDR −, tubulin wild type).
Assay [1] relates to Squamous Cell Carcinoma FADU. Description: Inhibition of cell growth, Squamous Cell Carcinoma FADU (MDR −, tubulin wild type). The settings on record: concentration 0.05 ug/mL.
Assay [2] relates to Breast Cancer MCF-7 NCI-AR. Put plainly: Inhibition of cell growth, Breast Cancer MCF-7 NCI-AR (MDR +, tubulin wild type). The settings on record: for Inhibition: MCF-7 NCI-AR.
The subject of assay [3] is MDR sensitive cancer cell lines. Put plainly: Inhibition of cell growth against MDR sensitive cancer cell lines. Conditions: result in words.
The test system of assay [4] is Ovarian Carcinoma 1A9PTX10. Put plainly: Inhibition of cell growth, Ovarian Carcinoma 1A9PTX10 (MDR +, tubulin mutant).
Where [5] appears, read: Homo sapiens, MCF7, MCF-7 NCI-AR, concentration 0.5 ug/mL.

Turning to `C=CC1O[C@H]2C[C@H]3OC[C@@]3(OC(C)=O)[C@H]3[C@H](OC(=O)c4ccccc4)[C@]4(O)C[C@H](OC(=O)[C@H](O)[C@H](CC(C)C)NC(=O)OC(C)(C)C)C(C)=C([C@H](OC(C)=O)[C@H](O1)[C@]23C)C4(C)C` (stereo partly drawn) [TPI 287, 7,9-acrolein acetal-10-α-acetyl-2′-R,S-hydroxy-3′-S-isobutyl-3′-N-t-butoxy carbonyl taxane], the inhibition at 0.05 µg/mL was 58% with Neuroblastoma SK-N-AS (Homo sapiens, concentration 0.05 ug/mL) and 56% in assay [1] (Homo sapiens). For the same compound, in assay [2] (Homo sapiens, MCF7, MCF-7 NCI-AR, concentration 0.031 ug/mL), 0.031 µg/mL produced 13% inhibition. In addition, 0.061 µg/mL produced 22% inhibition in assay [2] (Homo sapiens, MCF7, MCF-7 NCI-AR, concentration 0.061 ug/mL). Moreover, testing at 0.125 µg/mL in assay [2] (Homo sapiens, MCF7, MCF-7 NCI-AR, concentration 0.125 ug/mL) gave an inhibition of 37%. The compound also displayed an inhibition at 0.25 µg/mL in assay [2] (Homo sapiens, MCF7, MCF-7 NCI-AR, concentration 0.25 ug/mL) of 47%. Further, testing at 0.5 µg/mL in assay [2] (setting [5]) gave an inhibition of 80%. Besides, in assay [3], the “inhibition of cell growth against MDR sensitive cancer cell lines” value (“inhibition of cell growth” below) is listed as “excellent inhibition of cell growth”. The compound further had an inhibition at 0.1 µg/mL in assay [4] (Homo sapiens, 1A9/ptx-10, 1A9PTX10, concentration 0.1 ug/mL) of 51%. In assay [4] (Homo sapiens, 1A9/ptx-10, 1A9PTX10, concentration 0.2 ug/mL), this compound registered an inhibition at 0.2 µg/mL of 85%.

In the case of `C=CC1O[C@H]2C[C@H]3OC[C@@]3(OC(C)=O)[C@H]3[C@H](OC(=O)c4ccccc4)[C@]4(O)C[C@H](OC(=O)[C@H](O)[C@@H](NC(=O)c5ccccc5)c5ccccc5)C(C)=C([C@H](OC(C)=O)[C@H](O1)[C@]23C)C4(C)C` (stereo partly drawn) [TPI 251], the inhibition at 0.5 µg/mL worked out at 45% in assay [2] (setting [5]) and 96% in assay [4] (Homo sapiens, 1A9/ptx-10, 1A9PTX10, concentration 0.5 ug/mL). Besides, the inhibition at 1 µg/mL in assay [2] (Homo sapiens, MCF7, MCF-7 NCI-AR, concentration 1.0 ug/mL) worked out at 65%. This compound also showed an inhibition at 2 µg/mL in assay [2] (Homo sapiens, MCF7, MCF-7 NCI-AR, concentration 2.0 ug/mL) of 94%. In addition, in assay [3], the “inhibition of cell growth” value is on record as “excellent inhibition of cell growth”. The same compound returned an inhibition at 0.25 µg/mL in assay [4] (Homo sapiens, 1A9/ptx-10, 1A9PTX10, concentration 0.25 ug/mL) of 93%.

Consider `C=CC1O[C@H]2C[C@H]3OC[C@@]3(OC(C)=O)[C@H]3[C@H](OC(=O)c4ccccc4)[C@]4(O)C[C@H](OC(=O)[C@H](O)[C@@H](NC(=O)c5ccccc5)c5ccccc5)C(C)=C([C@H](OC(C)=O)[C@H](O1)[C@]23C)C4(C)C` (stereo partly drawn) [TPI 285], for which the Inhibition is 41% in assay [2] (concentration 0.5 ug/mL), 51% in assay [2] (concentration 1.0 ug/mL) and 85% in assay [2] (concentration 2.0 ug/mL). Also, the “inhibition of cell growth” value in assay [3] is “excellent inhibition of cell growth”.

`CC(=O)O[C@H]1C(=O)[C@@]2(C)[C@H]([C@H](OC(=O)c3ccccc3)[C@]3(O)C[C@H](OC(=O)[C@H](O)[C@@H](NC(=O)c4ccccc4)c4ccccc4)C(C)=C1C3(C)C)[C@]1(OC(C)=O)CO[C@@H]1C[C@@H]2O` [Paclitaxel, reference compound]: the Inhibition in the assay with Neuroblastoma SK-N-AS (concentration 0.1 ug/mL) came to 54%; in assay [1] it was 47%; in assay [2] (concentration 40 ug/mL), 55%; in assay [4] (1A9PTX10, concentration 5 ug/mL), 55%.

By inhibition is commonly meant the relative decrease from the control value, in per cent. Low values mean little suppression, high ones strong suppression. The Inhibition is the percentage by which the read-out fell short of the control.
